Entries after “also recorded” stand apart in the source; their conditions may differ.
Assays:
[1] = test system: Normal human prostate epithelial cells (PrEC); experiment: MTT cell viability assay; assay type: cell-based
From the text: (§1) Cell Culture. LNCaP androgen-responsive (p53^+/+) and PC-3 androgen-nonresponsive (p53^−/−) human prostate cancer cells were purchased from the American Type Tissue Collection (Manassas, Va.) and cultured in RPMI 1640 medium (Gibco, Grand Island, N.Y.) supplemented with 10% fetal bovine serum (FBS; Gibco).—Normal human prostate epithelial cells (PrEC) were obtained from Cambrex Bioscience-Walkersville (Walkersville, Md.), and maintained in the vendor's recommended defined prostate epithelial growth medium. All cell types were cultured at 37° C. in a humidified incubator containing 5% CO2.
(§2) Cell viability analysis. The effect of test agents on cell viability was assessed by using the MTT [3-(4,5-dimethylthiazol-2-yl)-2,5-diphenyl-2H-tetrazolium bromide] assay in six to twelve replicates. Cancer cells and PrECs were grown in 5% FBS-supplemented RPMI 1640 medium or 5% FBS-supplemented prostate epithelial growth medium, respectively, in 96-well, flat-bottomed plates for 24 h, and then exposed to various concentrations of test agents in the same medium for the indicated time intervals. […] Absorbance at 570 nm was determined on a plate reader.
(§3) These agents (A1-A24) were evaluated for their ability to reduce cell viability of PC-3 (p53^−/−) androgen-nonresponsive and LNCaP (p53^+/+) androgen-responsive prostate cancer cells after 24-h exposure by MTT assay.

LNCaP cells = experiment: Cell proliferation by direct cell counting (Coulter counter); assay type: cell-based, human
Description: (§4) Cell Proliferation. PC-3 and LNCaP cells were seeded into six-well plates at approximately 200,000 cells/well in 5% FBS-containing RPMI 1640 medium. Following a 24 h attachment period, cells were treated in triplicate with the indicated concentrations of test agent or DMSO vehicle in 5% FBS-containing RPMI-1640 medium. At different time intervals, cells were harvested by trypsinization, and numerated using a Coulter counter (Model Z1 D/T, Beckman Coulter, Fullerton, Calif.).
(§5) In line with the cell viability data, a concentration of at least 300 μM was required for indole-3-carbinol to attain the same level of efficacy.

PC-3 cells [2] = experiment: as above; assay type: cell-based, human
Description: as §4, §5

[3] = NMR analysis of acid stability; assay type: physicochemical; settings: CD3OD plus deuterium-labeled HCl, room temperature; indole-3-carbinol t=5 min, OSU-A9 up to 8 h
Description: Nuclear magnetic resonance (NMR) analysis of acid stability. […] To each solution was added 100 μl of deuterium-labeled HCl, and NMR spectra were recorded in a 300 MHz NMR spectrometer at room temperature at different time intervals.
Individual compounds (20 mg) were dissolved in 1 ml of deuterium-labeled methanol (CD3OD).

PPARγ = molecular target: T1, PPARγ (Homo sapiens, UniProt P37231); experiment: PPRE-luciferase reporter assay for PPARγ activation in PC-3 cells; assay type: cell-based; settings: even at 20 μM, 24 h
T1 construct: PC-3 cells were transfected with PPRE-X3-TK-Luc; endogenous in cells; host or cells: PC-3 cells
T1 sequence (P37231 1-505): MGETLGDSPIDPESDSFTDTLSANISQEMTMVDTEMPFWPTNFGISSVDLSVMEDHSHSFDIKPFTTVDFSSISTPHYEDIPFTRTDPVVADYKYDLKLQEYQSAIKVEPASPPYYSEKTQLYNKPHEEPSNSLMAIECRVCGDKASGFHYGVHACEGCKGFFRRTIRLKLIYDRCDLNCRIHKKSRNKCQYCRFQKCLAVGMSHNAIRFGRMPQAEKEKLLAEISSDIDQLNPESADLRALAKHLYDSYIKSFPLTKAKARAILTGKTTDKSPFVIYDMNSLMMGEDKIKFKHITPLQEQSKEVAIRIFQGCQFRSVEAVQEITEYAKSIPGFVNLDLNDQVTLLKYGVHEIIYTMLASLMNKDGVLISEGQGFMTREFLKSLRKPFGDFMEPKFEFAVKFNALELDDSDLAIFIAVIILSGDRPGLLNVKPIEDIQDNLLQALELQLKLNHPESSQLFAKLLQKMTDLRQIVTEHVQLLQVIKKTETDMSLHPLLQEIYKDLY
Description: Luciferase assay for PPARg activation. The PPRE-x3-TK-Luc reporter vector contains three copies of the PPAR-response element (PPRE) upstream of the thymidine kinase (tk) promoter-luciferase fusion gene and was kindly provided by Dr. Bruce Spiegelman (Harvard University, Cambridge, Mass.). PC-3 cells were cultured in a 100 mm plate in phenol red-free RPMI 1640 medium containing 10% FBS until the achieved 50-70% confluency, after which they were transfected with 6 μg of the plasmid using Fugene 6 (Roche, Indianapolis, Ind.) in RPMI 1640 medium. For each transfection, herpes simplex virus-thymidine kinase (HSV-TK) promoter-driven Renilla luciferase (phRL-TK) was used as an internal control for normalization. Following transfections, cells were treated as indicated, in RPMI 1640 medium containing 10% charcoal-stripped FBS. Cells were then collected into Passive Lysis Buffer (Promega), and luciferase activities in the cell lysates were determined by luminometry. All transfection experiments were carried out in triplicate plates and repeated separately at least three times.

PC-3 cells [4] = experiment: Apoptosis analysis (morphology, caspase-3 activation and PARP cleavage by Western blot); assay type: cell-based, human; settings: for caspase-3 activation and PARP cleavage: 48 hours, Western blot
Description: Apoptosis analysis. Drug-induced apoptotic cell death was assessed by Western blot analysis of caspase-3 activation and poly-(ADP-ribose)polymerase (PARP) cleavage. […], washed with ice-cold PBS, and resuspended in lysis buffer containing 20 mM Tris-HCl, pH 8, 137 mM NaCl, 1 mM CaCl2, 10% glycerol, 1% Nonidet P-40, 0.5% deoxycholate, 0.1% SDS, 100 μM 4-(2-aminoethyl)benzenesulfonyl fluoride, leupeptin at 10 μg/mL, and aprotinin at 10 μg/mL. Soluble cell lysates were collected after centrifugation at 10,000 g for 5 min. Equivalent amounts of proteins (60-100 μg) from each lysate were resolved in 8% SDS-polyacrylamide gels. Proteins were transferred to nitrocellulose membranes, and analyzed by immunoblotting with antibodies against caspase-3 or PARP as described below.
Drug-treated cells became shrunken, rounded, and detached from the dish.

[5] = test system: Akt, GSK3β, Bad, ERKs, JNK, p38, Bcl-2 family members, survivin, NF-kB, cyclin D1, p27, p21 in PC-3 cells; experiment: Immunoblotting of signaling targets in PC-3 cells; assay type: cell-based, human; settings: 48 h; for expression of Bax, p27, and p21: dose-dependent
Description: Immunoblotting. Biomarkers of apoptosis and signaling components associated with cell survival and growth arrest were assessed by Western immunoblotting as follows. Treated cells were washed in PBS, resuspended in SDS sample buffer, sonicated for 5 sec, and then boiled for 5 min. After brief centrifugation, equivalent amounts of proteins from the soluble fractions of cell lysates were resolved in 10% SDS-polyacrylamide gels on a Minigel apparatus, and transferred to a nitrocellulose membrane using a semi-dry transfer cell. The transblotted membrane was washed three times with TBS containing 0.05% Tween 20 (TBST). After blocking with TBST containing 5% nonfat milk for 60 min, the membrane was incubated with an appropriate primary antibody at 1:500 dilution (with the exception of anti-b-actin antibody, 1:2,000) in TBST-5% low fat milk at 4° C. for 12 h, and was then washed three times with TBST. The membrane was probed with goat anti-rabbit or anti-mouse IgG-horseradish peroxidase conjugates (1:2,500) for 90 min at room temperature, and washed three times with TBST. The immunoblots were visualized by enhanced chemiluminescence.
Indole-3-carbinol has been reported to target an array of signaling pathways to induce apoptosis and cell cycle arrest in cancer cells. […] These targets comprised three categories of biomarkers: a) phosphorylation of signaling kinases: Akt and its downstream effector GSK3β, ERKs, JNKs, and p38; b) phosphorylation/expression of Bcl-2 family members: Bad, Bax, Bcl-2, Bcl-xL, and Mcl-1; c) expression of other apoptosis and cell-cycle regulatory proteins: survivin, NF-kB/RelA, cyclin D1, p27, and p21 (FIG. 4).

[6] = Maximum tolerated dose determination; assay type: in vivo, athymic nude mice; settings: intraperitoneal, daily for 14 days, doses up to 25 mg/kg (tested 5, 10, 25, 50 mg/kg/day)
[7] = Tolerability in PC-3 tumor-bearing mice (body weight, necropsy, histology, blood); assay type: in vivo, athymic nude mice; settings: 10 or 25 mg/kg daily, intraperitoneal, 42 days
Description: (§6) In vivo studies. […] Body weights were measured weekly.

Bcl-xL = experiment: Intratumoral biomarker immunoblotting of PC-3 tumor homogenates; assay type: in vivo, human; settings: intraperitoneal, 42 days
Description: as §6

cyclin D1 = experiment: as above; assay type: in vivo, human; settings: intraperitoneal, 42 days
Description: as §6

p27 = experiment: as above; assay type: in vivo, human; settings: intraperitoneal, 42 days
Description: as §6

phospho-Akt = experiment: as above; assay type: in vivo, human; settings: intraperitoneal, 42 days
Description: as §6

phospho-p38 = experiment: as above; assay type: in vivo, human; settings: intraperitoneal, 42 days
Description: as §6

[8] = test system: LNCaP (p53+/+) androgen-responsive prostate cancer cells; experiment: MTT cell viability assay; assay type: cell-based, human; settings: 24-h exposure
From the text: as §1, §2, §3

[9] = test system: PC-3 (p53−/−) androgen-nonresponsive prostate cancer cells; experiment: MTT cell viability assay; assay type: cell-based, human; settings: PC-3 cells, 24-h exposure
From the text: as §1, §2, §3

androgen receptor (AR) = experiment: Immunoblotting of AR expression in LNCaP cells; assay type: cell-based, human; settings: highest doses examined (data not shown)

O=[N+]([O-])c1cc(S(=O)(=O)n2cc(CO)c3ccccc32)ccc1Cl [OSU-A9, [1-(3′-nitro-4′-chlorobenzenesulfonyl)-1H-indol-3-yl]-methanol]
lower sensitivity of PrECs than the prostate cancer cells ([1]; PrEC IC50 versus PC-3 and LNCaP IC50): 2.2-4.5 fold
IC50 ([1]; PrECs, MTT assay): 9 µM
concentration that completely suppressed cell proliferation (LNCaP cells): ≥ 2.5 µM
concentration that completely suppressed cell proliferation (PC-3 cells [2]): ≥ 2.5 µM
chemical stability in 0.1 N HCl, CH2OH proton signal by NMR [3]: no appreciable change
PPARγ transactivation (PPARγ): lacked appreciable activity
morphological changes, light microscopy (PC-3 cells [4]; 5 μM, 24 h): pronounced morphological changes
caspase-3 activation and PARP cleavage (PC-3 cells [4]): dose-dependent effect
apoptosis-inducing potency versus indole-3-carbinol (PC-3 cells [4]; caspase-3 activation and PARP cleavage): 100 fold
phosphorylation of Akt and its substrates GSK3b and Bad [5]: dose-dependent dephosphorylation
phosphorylation of ERKs, JNK, and p38 [5]: increased phosphorylation
expression of Bax, p27, and p21 [5]: up-regulating the expression
weight loss [6]: No apparent weight loss
body weight compared to vehicle-treated controls [7]: without significant loss of body weight
hematological and serum chemistry findings [7]: normal hematological and serum chemistry findings
overt toxicity / tolerability [7]: well-tolerated; also recorded: without overt signs of toxicity
lesions observed at necropsy ([7]; limited to peritoneal surfaces): mild to moderate amounts of fibrous adhesions
microscopic lesions in tissues examined ([7]; with the exception of the affected peritoneum): no treatment-associated lesions; also recorded: no significant lesions
reduction in intratumoral Bcl-xL (Bcl-xL; 10 mg/kg per day): 34±8%
reduction in intratumoral Bcl-xL (Bcl-xL; 25 mg/kg per day): 86±4%
reduction in intratumoral cyclin D1 (cyclin D1; 10 mg/kg per day): 70±3%
reduction in intratumoral cyclin D1 (cyclin D1; 25 mg/kg per day): 88±3%
increase in intratumoral p27 (p27; 10 mg/kg per day): 1.8±0.3 fold
increase in intratumoral p27 (p27; 25 mg/kg per day): 2.7±1.4 fold
reduction in intratumoral phospho-Akt compared to vehicle-treated controls (phospho-Akt; 10 mg/kg per day): 83±8%
reduction in intratumoral phospho-Akt compared to vehicle-treated controls (phospho-Akt; 25 mg/kg per day): 94±1%
increase in intratumoral phospho-p38 (phospho-p38; 10 mg/kg per day): 9.0±3.5 fold
increase in intratumoral phospho-p38 (phospho-p38; 25 mg/kg per day): 10.1±2.4 fold

OCc1c[nH]c2ccccc12 [indole-3-carbinol]
IC50 [8]: 267 µM
IC50 [9]: 512 µM
concentration that completely suppressed cell proliferation (LNCaP cells): at least 300 μM
concentration that completely suppressed cell proliferation (PC-3 cells [2]): at least 300 μM
chemical stability in 0.1 N HCl, CH2OH proton signal by NMR [3]: immediate shift of the CH2 signal
morphological changes, light microscopy (PC-3 cells [4]; 500 μM, 48 h): pronounced morphological changes
caspase-3 activation and PARP cleavage (PC-3 cells [4]): dose-dependent effect
phosphorylation of Akt and its substrates GSK3b and Bad [5]: dose-dependent dephosphorylation
phosphorylation of ERKs, JNK, and p38 [5]: increased phosphorylation
expression of Bax, p27, and p21 [5]: up-regulating the expression
AR expression (androgen receptor (AR)): neither agents had an appreciable effect
